Assay results taken from patent publication US9249145B2, “Heterocyclic derivatives of pyrazol-4-yl-pyrrolo[2,3-d]pyrimidines as janus kinase inhibitors” (Incyte Holdings Corporation, priority 2009, dated 2016).

Columns and labels:
[1] = target: T1, human JAK1 (a.a. 837-1142) (Homo sapiens, UniProt P23458); experiment: In vitro JAK kinase assay (HTRF, phosphorylation of biotinylated peptide), JAK1; type: biochemical; conditions: 1 mM ATP; Examples 92-162; read-out: JAK1 IC50 (nM) @ 1 mM ATP
T1 construct: The catalytic domains of human JAK1 (a.a. 837-1142); His tag (N); made in house; host or cells: insect cells (baculovirus)
Summary of the method: (§1)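 His-tagged catalytic domains expressed in baculovirus/insect cells; biotinylated peptide (500 nM) phosphorylation in 50 mM Tris pH 7.8, 100 mM NaCl, 5 mM DTT, 0.01% BSA, 1 h room temperature. ATP at Km (JAK1 90 μM, JAK2 30 μM) or 1 mM. EDTA stop, Eu-Py20/SA-APC HTRF read; IC50.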

Jak2 (a.a. 828-1132) = target: T2, Jak2 (a.a. 828-1132) (Homo sapiens, UniProt O60674); experiment: In vitro JAK kinase assay (HTRF, phosphorylation of biotinylated peptide), JAK2; type: biochemical; conditions: 1 mM ATP; Examples 92-162; read-out: JAK2 IC50 (nM) @ 1 mM ATP
T2 construct: Jak2 (a.a. 828-1132); His tag (N); made in house; host or cells: insect cells (baculovirus)
Summary of the method: as §1

T1 sequence (P23458 849-1154): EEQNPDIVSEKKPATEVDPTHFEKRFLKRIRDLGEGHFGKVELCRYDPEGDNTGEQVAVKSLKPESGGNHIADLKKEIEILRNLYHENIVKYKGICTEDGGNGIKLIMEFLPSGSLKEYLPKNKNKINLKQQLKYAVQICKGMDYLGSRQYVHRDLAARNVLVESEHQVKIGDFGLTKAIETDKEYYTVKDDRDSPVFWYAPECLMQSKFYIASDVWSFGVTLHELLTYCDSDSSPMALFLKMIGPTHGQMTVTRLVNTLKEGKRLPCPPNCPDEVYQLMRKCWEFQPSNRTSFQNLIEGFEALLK
T2 sequence (O60674 828-1132): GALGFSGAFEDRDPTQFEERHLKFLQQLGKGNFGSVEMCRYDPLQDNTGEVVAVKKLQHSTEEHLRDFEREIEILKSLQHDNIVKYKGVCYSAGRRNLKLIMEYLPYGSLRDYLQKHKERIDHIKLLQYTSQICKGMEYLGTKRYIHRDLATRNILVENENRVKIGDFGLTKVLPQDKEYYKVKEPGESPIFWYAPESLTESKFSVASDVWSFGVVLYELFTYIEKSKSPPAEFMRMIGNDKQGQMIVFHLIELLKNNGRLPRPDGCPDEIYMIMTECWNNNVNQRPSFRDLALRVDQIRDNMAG

SMILES	IC50 [1] [nM]	IC50 (Jak2 (a.a. 828-1132)) [nM]
N#CCC(CN1CCCN(C(=O)c2ccc(Cl)cc2)CC1)n1cc(-c2ncnc3[nH]ccc23)cn1 (centres unmarked) [Example 107, 4-[4-(4-chlorobenzoyl)-1,4-diazepan-1-yl]-3-[4-(7H-pyrrolo[2,3-d]pyrimidin-4-yl)-1H-pyrazol-1-yl]butanenitrile]	20 to 50	> 100
Cc1ccccc1S(=O)(=O)N1CCCN(CC(CC#N)n2cc(-c3ncnc4[nH]ccc34)cn2)CC1 (centres unmarked) [Example 108, 4-{4-[(2-methylphenyl)sulfonyl]-1,4-diazepan-1-yl}-3-[4-(7H-pyrrolo[2,3-d]pyrimidin-4-yl)-1H-pyrazol-1-yl]butanenitrile]	< 20	50 to 100
N#CCC(CN1CCCN(S(=O)(=O)c2ccccc2C(F)(F)F)CC1)n1cc(-c2ncnc3[nH]ccc23)cn1 (centres unmarked) [Example 109, 3-[4-(7H-pyrrolo[2,3-d]pyrimidin-4-yl)-1H-pyrazol-1-yl]-4-(4-{[2-(trifluoromethyl)phenyl]sulfonyl}-1,4-diazepan-1-yl)butanenitrile]	20 to 50	> 100
N#CCC(CN1CCCN(S(=O)(=O)c2ccccc2OC(F)(F)F)CC1)n1cc(-c2ncnc3[nH]ccc23)cn1 (centres unmarked) [Example 110, 3-[4-(7H-pyrrolo[2,3-d]pyrimidin-4-yl)-1H-pyrazol-1-yl]-4-(4-{[2-(trifluoromethoxy)phenyl]sulfonyl}-1,4-diazepan-1-yl)butanenitrile]	20 to 50	> 100
COc1ccc(OC)c(S(=O)(=O)N2CCCN(CC(CC#N)n3cc(-c4ncnc5[nH]ccc45)cn3)CC2)c1 (centres unmarked) [Example 111, 4-{4-[(2,5-dimethoxyphenyl)sulfonyl]-1,4-diazepan-1-yl}-3-[4-(7H-pyrrolo[2,3-d]pyrimidin-4-yl)-1H-pyrazol-1-yl]butanenitrile]	20 to 50	50 to 100
COc1ccc(Cl)cc1S(=O)(=O)N1CCCN(CC(CC#N)n2cc(-c3ncnc4[nH]ccc34)cn2)CC1 (centres unmarked) [Example 112]	< 20	20 to 50
N#CCC(CN1CCCN(S(=O)(=O)c2ccccc2Oc2ccccc2)CC1)n1cc(-c2ncnc3[nH]ccc23)cn1 (centres unmarked) [Example 113, 4-{4-[(2-phenoxyphenyl)sulfonyl]-1,4-diazepan-1-yl}-3-[4-(7H-pyrrolo[2,3-d]pyrimidin-4-yl)-1H-pyrazol-1-yl]butanenitrile]	20 to 50	> 100
COc1ccc(Br)cc1S(=O)(=O)N1CCCN(CC(CC#N)n2cc(-c3ncnc4[nH]ccc34)cn2)CC1 (centres unmarked) [Example 114, 4-{4-[(5-bromo-2-methoxyphenyl)sulfonyl]-1,4-diazepan-1-yl}-3-[4-(7H-pyrrolo[2,3-d]pyrimidin-4-yl)-1H-pyrazol-1-yl]butanenitrile]	20 to 50	50 to 100
CCC(CN1CCN(S(=O)(=O)c2ccn(C)n2)CC1)n1cc(-c2ncnc3[nH]ccc23)cn1 (centres unmarked) [Example 115, 4-{1-[1-({4-[(1-methyl-1H-pyrazol-3-yl)sulfonyl]piperazin-1-yl}methyl)propyl]-1H-pyrazol-4-yl}-7H-pyrrolo[2,3-d]pyrimidine]	< 20	20 to 50
CCC(CN1CCN(C(=O)c2ccc(F)cc2)CC1)n1cc(-c2ncnc3[nH]ccc23)cn1 (centres unmarked) [Example 116, (4-(2-(4-(7H-pyrrolo[2,3-d]pyrimidin-4-yl)-1H-pyrazol-1-yl)butyl)piperazin-1-yl)(4-fluorophenyl)methanone]	20 to 50	> 100
CCC(CN1CCN(C(=O)c2ccccc2O)CC1)n1cc(-c2ncnc3[nH]ccc23)cn1 (centres unmarked) [Example 117, 2-[(4-{2-[4-(7H-pyrrolo[2,3-d]pyrimidin-4-yl)-1H-pyrazol-1-yl]butyl}piperazin-1-yl)carbonyl]phenol]	20 to 50	50 to 100
CCC(CN1CCN(C(=O)c2ccc(F)cc2F)CC1)n1cc(-c2ncnc3[nH]ccc23)cn1 (centres unmarked) [Example 118, (4-(2-(4-(7H-pyrrolo[2,3-d]pyrimidin-4-yl)-1H-pyrazol-1-yl)butyl)piperazin-1-yl)(2,4-difluorophenyl)methanone]	< 20	20 to 50
CCC(CN1CCN(C(=O)c2cc(F)ccc2F)CC1)n1cc(-c2ncnc3[nH]ccc23)cn1 (centres unmarked) [Example 119, (4-(2-(4-(7H-pyrrolo[2,3-d]pyrimidin-4-yl)-1H-pyrazol-1-yl)butyl)piperazin-1-yl)(2,5-difluorophenyl)methanone]	20 to 50	50 to 100
CCC(CN1CCN(C(=O)c2cccc(F)c2F)CC1)n1cc(-c2ncnc3[nH]ccc23)cn1 (centres unmarked) [Example 120, (4-(2-(4-(7H-pyrrolo[2,3-d]pyrimidin-4-yl)-1H-pyrazol-1-yl)butyl)piperazin-1-yl)(2,3-difluorophenyl)methanone]	20 to 50	50 to 100
CCC(CN1CCN(C(=O)c2cc(F)cc(F)c2)CC1)n1cc(-c2ncnc3[nH]ccc23)cn1 (centres unmarked) [Example 121, (4-(2-(4-(7H-pyrrolo[2,3-d]pyrimidin-4-yl)-1H-pyrazol-1-yl)butyl)piperazin-1-yl)(3,5-difluorophenyl)methanone]	20 to 50	> 100
CCC(CN1CCN(C(=O)c2ccc(O)cc2Cl)CC1)n1cc(-c2ncnc3[nH]ccc23)cn1 (centres unmarked) [Example 122, (4-(2-(4-(7H-pyrrolo[2,3-d]pyrimidin-4-yl)-1H-pyrazol-1-yl)butyl)piperazin-1-yl)(2-chloro-4-hydroxyphenyl)methanone]	< 20	50 to 100
CCC(CN1CCN(C(=O)c2ccc(O)cc2F)CC1)n1cc(-c2ncnc3[nH]ccc23)cn1 (centres unmarked) [Example 123, (4-(2-(4-(7H-pyrrolo[2,3-d]pyrimidin-4-yl)-1H-pyrazol-1-yl)butyl)piperazin-1-yl)(2-fluoro-4-hydroxyphenyl)methanone]	< 20	< 20
CCC(CN1CCN(C(=O)c2ccc(Cl)cc2F)CC1)n1cc(-c2ncnc3[nH]ccc23)cn1 (centres unmarked) [Example 124, (4-(2-(4-(7H-pyrrolo[2,3-d]pyrimidin-4-yl)-1H-pyrazol-1-yl)butyl)piperazin-1-yl)(4-chloro-2-fluorophenyl)methanone]	< 20	20 to 50
CCC(CN1CCN(C(=O)c2ccc(F)cc2OC)CC1)n1cc(-c2ncnc3[nH]ccc23)cn1 (centres unmarked) [Example 125, (4-(2-(4-(7H-pyrrolo[2,3-d]pyrimidin-4-yl)-1H-pyrazol-1-yl)butyl)piperazin-1-yl)(4-fluoro-2-methoxyphenyl)methanone]	20 to 50	> 100
CCC(CN1CCN(C(=O)c2cccs2)CC1)n1cc(-c2ncnc3[nH]ccc23)cn1 (centres unmarked) [Example 126, (4-(2-(4-(7H-pyrrolo[2,3-d]pyrimidin-4-yl)-1H-pyrazol-1-yl)butyl)piperazin-1-yl)(thiophen-2-yl)methanone]	20 to 50	> 100
CCC(CN1CCN(S(=O)(=O)c2ccccc2)CC1)n1cc(-c2ncnc3[nH]ccc23)cn1 (centres unmarked) [Example 127, 4-(1-(1-(4-(phenylsulfonyl)piperazin-1-yl)butan-2-yl)-1H-pyrazol-4-yl)-7H-pyrrolo[2,3-d]pyrimidine]	< 20	20 to 50
CCC(CN1CCN(S(=O)(=O)c2ccccc2C#N)CC1)n1cc(-c2ncnc3[nH]ccc23)cn1 (centres unmarked) [Example 128, 2-(4-(2-(4-(7H-pyrrolo[2,3-d]pyrimidin-4-yl)-1H-pyrazol-1-yl)butyl)piperazin-1-ylsulfonyl)benzonitrile]	< 20	50 to 100
CCC(CN1CCN(S(=O)(=O)c2ccc(C#N)cc2)CC1)n1cc(-c2ncnc3[nH]ccc23)cn1 (centres unmarked) [Example 129, 4-(4-(2-(4-(7H-pyrrolo[2,3-d]pyrimidin-4-yl)-1H-pyrazol-1-yl)butyl)piperazin-1-ylsulfonyl)benzonitrile]	20 to 50	50 to 100
CCC(CN1CCN(S(=O)(=O)c2ccccc2C(F)(F)F)CC1)n1cc(-c2ncnc3[nH]ccc23)cn1 (centres unmarked) [Example 130, 4-(1-(1-(4-(2-(trifluoromethyl)phenylsulfonyl)piperazin-1-yl)butan-2-yl)-1H-pyrazol-4-yl)-7H-pyrrolo[2,3-d]pyrimidine]	< 20	50 to 100
CCC(CN1CCN(S(=O)(=O)c2cccc(C)n2)CC1)n1cc(-c2ncnc3[nH]ccc23)cn1 (centres unmarked) [Example 131, 4-(1-(1-(4-(6-methylpyridin-2-ylsulfonyl)piperazin-1-yl)butan-2-yl)-1H-pyrazol-4-yl)-7H-pyrrolo[2,3-d]pyrimidine]	< 20	20 to 50
CCC(CN1CCN(S(=O)(=O)c2ccccc2Cl)CC1)n1cc(-c2ncnc3[nH]ccc23)cn1 (centres unmarked) [Example 132, 4-(1-(1-(4-(2-chlorophenylsulfonyl)piperazin-1-yl)butan-2-yl)-1H-pyrazol-4-yl)-7H-pyrrolo[2,3-d]pyrimidine]	< 20	20 to 50
CCC(CN1CCN(S(=O)(=O)c2cn(C)nc2C(F)(F)F)CC1)n1cc(-c2ncnc3[nH]ccc23)cn1 (centres unmarked) [Example 133, 4-(1-(1-(4-(1-methyl-3-(trifluoromethyl)-1H-pyrazol-4-ylsulfonyl)piperazin-1-yl)butan-2-yl)-1H-pyrazol-4-yl)-7H-pyrrolo[2,3-d]pyrimidine]	20 to 50	> 100
CCC(CN1CCN(S(=O)(=O)c2cccs2)CC1)n1cc(-c2ncnc3[nH]ccc23)cn1 (centres unmarked) [Example 134, 4-(1-(1-(4-(thiophen-2-ylsulfonyl)piperazin-1-yl)butan-2-yl)-1H-pyrazol-4-yl)-7H-pyrrolo[2,3-d]pyrimidine]	< 20	20 to 50
